According to patent publication US20100256214A1, “EPH RECEPTOR LIGANDS AND METHODS OF USE” (Burnham Institute for Medical Research, priority 2009, published 2010):

Experiments:
EphA4 = EphA4 (Mus musculus, UniProt Q03137); test: ELISA, EphA4 AP binding to immobilized biotinylated KYL peptide; parameters: made in house; conditioned culture medium used
Procedure: Chemical Library Screening for EphA4 Inhibitors—A 96-well format in vitro assay was used for compound screening. Polystyrene high binding capacity plates (Corning, Corning, N.Y.) were incubated overnight at 4° C. with 2 μg/mL streptavidin (Pierce Biotecnology, Rockford, Ill.) diluted in borate buffer 0.1 M pH 8.7 and then coated by overnight incubation with 0.1 μM of biotinylated KYL peptide (Murai et al. (2003) Mol Cell Neurosci 24(4), 1000-1011) in binding buffer (Tris-buffered saline (TBS; 150 mM NaCl, 50 mM Tris-HCl, pH 7.5) with 1 mM CaCl2 and 0.01% Tween 20). Compounds were added to the wells at 10 μg/mL in 100% dimethylsulfoxide (DMSO) together with EphA4 alkaline phosphatase fusion protein (EphA4 AP) produced from transfected cells. Cell culture medium containing the secreted EphA4 AP was diluted 1:16 in binding buffer. The mixture was incubated for 3 hours at room temperature before washing with binding buffer and adding p-nitrophenylphosphate (pNPP) (Pierce Biotecnology, Rockford, Ill.) as the substrate. After 1 hour the reaction was stopped by adding 2N NaOH and the absorbance at 405 nm was measured using an ELISA plate reader Alkaline phosphatase activity from wells where alkaline phosphatase (AP) was added instead of EphA4 AP was subtracted as background. The inhibitory activity of the compounds was calculated by dividing the absorbance observed in the presence of each compound and the absorbance from wells where no compound was added. Compounds with inhibitory activity higher than 50% were considered hits.

EphA2 = EphA2 (Homo sapiens, UniProt P29317); test: EphA2 tyrosine phosphorylation in HUVE endothelial cells treated with TNFα; format: cell-based; parameters: endogenous in cells
Sequence of EphA2 (P29317 24-976): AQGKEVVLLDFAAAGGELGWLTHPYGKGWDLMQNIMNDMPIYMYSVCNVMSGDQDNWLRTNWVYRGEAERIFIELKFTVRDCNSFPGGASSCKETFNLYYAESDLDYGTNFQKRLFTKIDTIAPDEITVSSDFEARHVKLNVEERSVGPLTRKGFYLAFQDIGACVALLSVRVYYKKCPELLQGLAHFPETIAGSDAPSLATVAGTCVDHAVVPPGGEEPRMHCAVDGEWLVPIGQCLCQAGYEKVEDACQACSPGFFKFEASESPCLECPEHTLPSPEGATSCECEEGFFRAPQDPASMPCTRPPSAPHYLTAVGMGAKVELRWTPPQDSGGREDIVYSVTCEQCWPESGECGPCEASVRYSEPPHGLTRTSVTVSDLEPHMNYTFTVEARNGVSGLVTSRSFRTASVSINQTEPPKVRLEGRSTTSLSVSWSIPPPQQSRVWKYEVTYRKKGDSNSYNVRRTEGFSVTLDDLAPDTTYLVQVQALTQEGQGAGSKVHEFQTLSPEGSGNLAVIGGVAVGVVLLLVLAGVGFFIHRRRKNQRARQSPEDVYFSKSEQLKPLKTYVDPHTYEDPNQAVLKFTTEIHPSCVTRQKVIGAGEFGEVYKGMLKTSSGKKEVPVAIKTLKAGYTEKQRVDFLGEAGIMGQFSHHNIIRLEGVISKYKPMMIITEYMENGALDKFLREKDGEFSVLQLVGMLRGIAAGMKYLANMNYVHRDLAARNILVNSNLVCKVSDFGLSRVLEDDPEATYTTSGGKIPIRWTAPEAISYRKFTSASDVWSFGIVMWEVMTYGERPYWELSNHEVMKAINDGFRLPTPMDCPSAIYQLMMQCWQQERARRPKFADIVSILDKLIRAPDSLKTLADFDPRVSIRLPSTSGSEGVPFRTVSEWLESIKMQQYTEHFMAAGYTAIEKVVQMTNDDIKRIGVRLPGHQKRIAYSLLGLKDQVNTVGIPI
Procedure: FIGS. 6A-6F. A. HT22 neuronal cells pretreated with the indicated concentrations of compounds 1 or 2 for 15 min were stimulated with 0.5 μg/mL ephrin-A5 Fc (+) or Fc as a control (−) for 20 min in the continued presence of the compounds. EphA4 immunoprecipitates were probed with anti-phosphotyrosine antibody (PTyr) and reprobed for EphA4. C indicates immunoprecipitations performed with control antibodies from non-immunized rabbits. […] Error bars represent the standard error from 4 experiments for compound 1 and 3 experiments for compound 2. […] C. COS7 cells pretreated with the indicated concentrations of compounds 1 or 2 for 15 min were stimulated with 0.1 μg/mL ephrin-A1 Fc or Fc as a control in the continued presence of the compounds. EphA2 immunoprecipitates were probed with anti-phosphotyrosine antibody (PTyr) and reprobed for EphA2. C indicates immunoprecipitations performed with control antibodies. […] Levels of EphA2 phosphorylation quantified from immunoblots and normalized to the amount of immunoprecipitated EphA2 were also performed. […]
Measurement of Receptor Tyrosine Phosphorylation in Cells—HT22 neuronal cells, which endogenously express EphA4, are derived from immortalized mouse hippocampal neurons (Li et al. (1997) Neuron 19(2), 453-463). […] The protein concentration was calculated using the BCA protein assay kit (Pierce Biotecnology, Rockford, Ill.). […]

[1] = target: T1, EphA4 ligand-binding domain (Homo sapiens, UniProt P54764, C204A); test: Isothermal titration calorimetry with EphA4 ligand-binding domain; conditions: ITC; for Ka / Kb: 10 mM phosphate buffer pH 6.3, 25° C.
T1 construct: His-tagged fusion partner of modified pET32a (N, cleaved yes); made in house; host or cells: E. coli Rosetta-gami (DE3)
T1 sequence (P54764 29-209 C204A): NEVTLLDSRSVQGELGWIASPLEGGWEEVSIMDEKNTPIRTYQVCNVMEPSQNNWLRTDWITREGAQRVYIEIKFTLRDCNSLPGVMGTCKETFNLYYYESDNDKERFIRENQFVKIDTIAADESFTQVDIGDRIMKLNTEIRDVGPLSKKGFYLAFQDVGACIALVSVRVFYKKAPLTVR
Procedure: The free Cys176 in this extra tail was mutated to Ala by use of the site-directed mutagenesis kit (Stratagene) to avoid the formation of non-native disulfide bridges.
Titrations were conducted in 10 mM phosphate buffer (pH 6.3) at 25° C. […] The powders of the two compounds were weighted and then dissolved in 10 mM phosphate buffer with the final pH values adjusted to 6.3. The EphA4 receptor at a concentration of 70 μM was placed in a 1.8 ml sample cell while the compounds at a concentration of 2 mM were loaded into a 300 μL syringe. The samples were degassed for 15 min to remove bubbles before the titrations were initiated. Control experiments with the same parameter settings were also performed for the two compounds without EphA4, to subtract the effects due to sample dilution. To obtain thermodynamic binding parameters, the titration data after subtracting the values obtained from the control experiments were fit to a single binding site model using the built-in software ORIGIN version 5.0 (Microcal Software Inc.).

Sequence of EphA4 (Q03137 20-547 limits assumed): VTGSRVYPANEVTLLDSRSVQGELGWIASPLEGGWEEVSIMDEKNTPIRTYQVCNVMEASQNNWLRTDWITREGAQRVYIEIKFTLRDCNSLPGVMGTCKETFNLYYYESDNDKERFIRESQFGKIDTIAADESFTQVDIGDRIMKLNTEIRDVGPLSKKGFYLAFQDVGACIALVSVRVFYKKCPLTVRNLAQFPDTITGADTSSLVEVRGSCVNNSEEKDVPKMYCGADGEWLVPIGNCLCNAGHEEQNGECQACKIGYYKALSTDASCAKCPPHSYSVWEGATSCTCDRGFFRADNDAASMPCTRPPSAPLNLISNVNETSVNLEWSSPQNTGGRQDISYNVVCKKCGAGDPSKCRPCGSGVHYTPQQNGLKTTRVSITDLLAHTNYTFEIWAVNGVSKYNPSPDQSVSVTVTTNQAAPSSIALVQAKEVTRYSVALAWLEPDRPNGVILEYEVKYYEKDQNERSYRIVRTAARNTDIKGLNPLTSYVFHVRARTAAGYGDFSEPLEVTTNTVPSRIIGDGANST

| SMILES | inhibition of EphA4-KYL peptide binding (in words) (EphA4) | tyrosine phosphorylation of endogenous EphA2 (EphA2) | Kd [1] [µM] | Stoichiometry [1] | ΔH, enthalpy change of binding [1] | ΔS [1] [cal/mol*K] | Ka [1] [M⁻¹] | Kb [1] [µM] | IC50 (EphA4; read-out: IC50 for inhibition of EphA4 AP binding to KYL peptide) [µM] |
| --- | --- | --- | --- | --- | --- | --- | --- | --- | --- |
| Cc1ccc(C)n1-c1ccc(C(=O)O)c(O)c1 [compound 1, 4-(2,5-dimethyl-pyrrol-1-yl)-2-hydroxy-benzoic acid] | inhibit | inhibited | 20.4 | 1.000 ± 0 | −1,001 cal | 18.11 | 48930 | 20.4 |  |
| Cc1ccc(C)n1-c1ccc(O)c(C(=O)O)c1 [compound 2, 5-(2,5 dimethyl-pyrrol-1-yl)-2-hydroxy-benzoic acid] | inhibit | inhibited | 26.4 | 1.000 ± 0 | -237 cal | 20.15 | 37850 | 26.4 | 3 |
